# Test results taken from patent US20240408082A1, “METHODS FOR TREATING CANCERS AND TUMORS” (BEYONDSPRING PHARMACEUTICALS, INC., priority 2021, published 2024).
# “And” between values parts separate entries of the source, which are not always exact repeats. Identical values can stand only once.
# Columns and labels:
# Type in all cases: cell-based
# [1] = system: Triple negative breast cancer (MAXFTN); assay: 3D clonogenic assay, Example 2, triple negative breast cancer; conditions: based on IC70, FIG. 7
# Protocol: (§1) The present study investigated plinabulin for anticancer activity ex vivo in 68 out of 71 originally planned patient-derived xenograft (PDX) models representing major cancer types. Experiments were performed using a 3D clonogenic assay in a 96-well format with colony count based on image analysis as a read-out. By using this assay, the investigational compound was assessed for the ability to inhibit anchorage independent growth and ex vivo colony formation of tumor cells in semi-solid medium.
# (§2) A master stock solution of plinabulin was prepared by dissolving the compound in DMSO at a concentration of 9.9 mM. Working stock solutions were prepared by diluting the master stock solution with DMSO to a concentration of 0.99 mM (330-fold the highest test concentration). Small aliquots of the master and working stock were stored at −20° C. […]
# (§3) Plinabulin was investigated in 68 PDX models representing a number of cancer types. […] The percentage of viable cells was determined in a Neubauer-hemocytometer using trypan blue exclusion. […]
# (§4) The clonogenic assay was carried out in a 96 well plate format using ultra low attachment plates. […] Cultures were incubated at 37° C. and 7.5% CO2 in a humidified atmosphere 13 days in total and monitored closely for colony growth using an inverted microscope. […]
# [2] = system: 68 PDX models of various histotypes; assay: 3D clonogenic assay, Example 2, all PDX models
# Protocol: as §1
# A master stock solution of plinabulin was prepared by dissolving the compound in DMSO at a concentration of 9.9 mM. Working stock solutions were prepared by diluting the master stock solution with DMSO to a concentration of 0.99 mM (330-fold the highest test concentration). Small aliquots of the master and working stock were stored at −20° C. On each day of an experiment, an aliquot of the working stock was used and stored at room temperature prior to and during treatment. All liquid handling steps were performed using a Tecan Freedom EVO 200 robotic platform. First, serial dilutions of the working stock solution were done in DMSO. The DMSO dilutions were then diluted 1:22 into the cell culture medium (IMDM, supplemented with 20% (v/v) fetal calf serum, and 50 μg/ml gentamicin) in an intermediate dilution plate. Finally, 10 μl taken from the intermediate dilution plate were transferred to 140 μl/well of the final assay plate. Thus, the DMSO working stock was diluted at 1:330, and the DMSO concentration in the assay was 0.3% v/v in all wells.
# Plinabulin was investigated in 68 PDX models representing a number of cancer types. Tumors were passaged as subcutaneous xenografts in NMRI nu/nu mice. At a tumor volume of 400-1000 mm^3 tumor-bearing mice were euthanized and tumors were collected under sterile conditions without delay according to relevant SOPs and the relevant animal welfare guidelines published by the FELASA and the GV-SOLAS. Tumors were mechanically disaggregated and subsequently incubated with an enzyme cocktail consisting of collagenase type IV (41 U/ml), DNase I (125 U/ml), hyaluronidase type III (100 U/ml), and dispase II (1 U/ml) in RPMI 1640 medium (Life Technologies) at 37° C. for 60-120 minutes. Cells were passed through sieves of 100 μm and 40 μm mesh size (Cell Strainer, BD Falcon™), and washed with RPMI 1640 medium (Biochrom). The percentage of viable cells was determined in a Neubauer-hemocytometer using trypan blue exclusion. Aliquots of the cells were frozen down and stored in a liquid nitrogen vapor phase. On each day of an experiment, a frozen aliquot of tumor cells was thawed and used for the preparation of assay plates.
# The clonogenic assay was carried out in a 96 well plate format using ultra low attachment plates. For each test, cells were prepared as described above (Section 6.6) and assay plates were prepared as follows: each test well contained a layer of semi-solid medium with tumor cells (50 μl), and a second layer of medium supernatant with or without test compound (100 μl). The cell layer consisted of 2.5-12.5·10^3 tumor cells per well, which were seeded on day 0 (d0) in 50 μl/well cell culture medium (IMDM, supplemented with 20% (v/v) fetal calf serum, 50 μg/ml gentamicin, and 0.4% (w/v) agar). After 24 h, the soft-agar layer was covered with 90 μl of the same culture medium without agar. Seven days after seeding 10 μl of test compound or control medium was added, and left on the cells for 24 h. Every 96 well plate included six DMSO-treated control wells and drug-treated wells in duplicate at 9 concentrations. After the incubation time of 24 h the supernatant (90 μl medium without agar +10 μl compound/control) was changed against drug free medium and incubated until the end of the study. Cultures were incubated at 37° C. and 7.5% CO2 in a humidified atmosphere 13 days in total and monitored closely for colony growth using an inverted microscope. […]
# [3] = system: central nervous system cancer; assay: 3D clonogenic assay, Example 2, central nervous system cancer; conditions: n=6 models
# Protocol: as §1, §2, §3, §4
# [4] = system: (Asian) gastric cancer model GXA 3067; assay: 3D clonogenic assay, Example 2, GXA 3067; conditions: read-out: abs. IC50
# Protocol: as §1, §2, §3, §4
# [5] = system: small cell lung cancer model LXFS 2156; assay: 3D clonogenic assay, Example 2, LXFS 2156
# Protocol: as §1, §2, §3, §4
# [6] = system: small cell lung cancer model LXFS 650; assay: 3D clonogenic assay, Example 2, LXFS 650
# Protocol: as §1, §2, §3, §4
structure (smiles),measurement,setting,value
"CC(C)(C)c1[nH]cnc1/C=c1\[nH]c(=O)/c(=C/c2ccccc2)[nH]c1=O [plinabulin, (3Z,6Z)-3-Benzylidene-6-{[5-(2-methyl-2-propanyl)-1H-imidazol-4-yl]methylene}-2,5-piperazinedione]",sensitivity to plinabulin (in words),[1],sensitive
same,"Sensitive Tumors, Number, Based on Abs. IC70",[2]; 68 PDX models,9 out of 68 and 9/68
same,"Sensitive Tumors, Number, Based on Rel. IC70",[2]; 68 PDX models,27/68
same,"Sensitive Tumors, Percentage, Based on Abs. IC50",[2]; 68 PDX models,35%
same,"Sensitive Tumors, Percentage, Based on Abs. IC70",[2]; 68 PDX models,13%
same,"Sensitive Tumors, Percentage, Based on Rel. IC50",[2]; 68 PDX models,50%
same,"Sensitive Tumors, Percentage, Based on Rel. IC70",[2]; 68 PDX models,40%
same,"geometric mean absolute IC70, tumor colony formation","[2]; all 68 PDX models, treatment from day 7 to day 8",1780 nM
same,IC50,"[2]; all 68 PDX models, treatment from day 7 to day 8, read-out: geometric mean absolute IC50, tumor colony formation",600 nM
same,"Fold difference of IC50 of sensitive tumors vs. all tumors, Based on Abs. IC50",[2]; geometric means,10.7 fold
same,"Fold difference of IC50 of sensitive tumors vs. all tumors, Based on Rel. IC50",[2]; geometric means,3.4 fold
same,"Fold difference of IC70 of sensitive tumors vs. all tumors, Based on Abs. IC70",[2]; geometric means,27.1 fold
same,"Fold difference of IC70 of sensitive tumors vs. all tumors, Based on Rel. IC70",[2]; geometric means,4.6 fold
same,inhibition of tumor colony formation (in words),[2]; sigmoidal concentration-effect curves,inhibited tumor colony formation in a concentration-dependent manner in almost all cell lines
same,geom. mean abs. IC70,[3],1521 nM
same,IC50,[3]; read-out: geom. mean abs. IC50,426 nM
same,IC50,[4],26 nM
same,abs. IC70,[5],15 nM
same,IC50,[5]; read-out: abs. IC50,7 nM
same,abs. IC70,[6],32 nM
same,IC50,[6]; read-out: abs. IC50,22 nM
